Laboratory results reported in PubChem BioAssay (NCI).
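The compound was tested at five concentrations on cells cultured in 96-well plates, with a 48-hour exposure period. TGI denotes the concentration required for complete inhibition of growth.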

Columns and labels:
Assay in all cases: NCI anticancer screen, dose series, 48 h
[1] = test system: ACHN renal
[2] = test system: OVCAR-8 ovarian
[3] = test system: MCF7 breast
[4] = test system: MDA-N
[5] = test system: PC-3 prostate
[6] = test system: TK-10 renal
[7] = test system: BT-549 breast
[8] = test system: A549 NSCLC
[9] = test system: SNB-75 CNS
[10] = test system: UACC-62 melanoma
[11] = test system: MALME-3M melanoma
[12] = test system: MDA-MB-435
[13] = test system: SK-MEL-5 melanoma
[14] = test system: KM12 colon
[15] = test system: OVCAR-4 ovarian
[16] = test system: M14 melanoma
[17] = test system: HCT-15 colon
[18] = test system: 786-0 renal

SMILES	TGI [1]	TGI [2]	TGI [3]	TGI [4]	TGI [5]	TGI [6]	TGI [7]	TGI [8]	TGI [9]	TGI [10]	TGI [11]	TGI [12]	TGI [13]	TGI [14]	TGI [15]	TGI [16]	TGI [17]	TGI [18]
CC[C@@]1(O)C(=O)OCc2c1cc1n(c2=O)Cc2c-1nc1ccccc1c2/C=N\NC(=O)C[n+]1ccccc1	1.27 µM	> 68.7 µM	16.2 µM	> 100 µM	> 100 µM	> 100 µM	> 100 µM	> 100 µM	> 28.2 µM	1.22 µM	> 100 µM	> 100 µM	2.09 µM	> 100 µM	> 100 µM	6.37 µM	> 100 µM	> 27.8 µM
CC(C)OC(=O)c1ccc(NCC2=CC(=O)C=CC2=O)cc1	24.3 µM	29.7 µM	27.3 µM	29.2 µM	25.7 µM	28.6 µM	26.1 µM	> 100 µM	76.3 µM	31.4 µM	22.7 µM	26.4 µM	32.2 µM	41.8 µM	26.2 µM	28.3 µM	25.5 µM	28.5 µM
COC(=O)c1ccccc1/C=C1\Cc2c(ccc3c2CCC3)C1=O	> 100 µM	> 100 µM	> 100 µM	> 100 µM	> 100 µM	> 100 µM	> 100 µM	> 100 µM	> 100 µM	> 100 µM	> 100 µM	> 100 µM	> 100 µM	> 100 µM	> 100 µM	> 100 µM	> 100 µM	> 100 µM
NC(=O)NC1NC(=O)NC1=O (centres undefined)	> 100 µM	> 100 µM	> 100 µM	> 100 µM	> 100 µM	> 100 µM	> 100 µM	> 100 µM	> 100 µM	> 100 µM	> 100 µM	> 100 µM	> 100 µM	> 100 µM	> 100 µM	> 100 µM	> 100 µM	> 100 µM
CC(C)C[C@H]1[C@@H](OCc2ccccc2)COS(=O)(=O)N1[C@H](C)c1ccccc1	> 100 µM	> 100 µM	> 100 µM	> 100 µM	> 100 µM	> 100 µM	> 100 µM	> 100 µM	> 100 µM	> 100 µM	> 100 µM	> 100 µM	> 64.4 µM	> 100 µM	> 100 µM	> 100 µM	> 100 µM	> 100 µM
C=CCN1C(=O)/C(=C/c2ccc(Cl)cc2)N=C1SC/C=C/C	> 100 µM	> 100 µM	84.3 µM	> 100 µM	> 100 µM	> 100 µM	> 100 µM	> 100 µM	> 100 µM	> 100 µM	> 100 µM	> 100 µM	82 µM	> 100 µM	> 100 µM	> 100 µM	> 100 µM	> 100 µM
CC1=NN(c2ccccc2)C2(C1)C(Cl)C(=O)N2c1nc2ccccc2s1 (centres undefined)	> 100 µM	> 100 µM	> 100 µM	> 100 µM	> 100 µM	> 100 µM	> 100 µM	> 100 µM	> 100 µM	> 100 µM	> 100 µM	> 100 µM	73.3 µM	> 100 µM	> 100 µM	> 100 µM	> 100 µM	> 100 µM
NC(CSS(=O)(=O)O)=NC1CC2CCC1C2 (centres undefined)	> 100 µM	> 100 µM	> 100 µM	> 100 µM	> 100 µM	> 100 µM	> 100 µM	> 100 µM	> 100 µM	> 100 µM	> 100 µM	> 100 µM	> 100 µM	> 100 µM	> 100 µM	> 100 µM	> 100 µM	> 100 µM
CCCCNC(=S)Nc1nc(C(=O)NNC(=S)NCC)cs1	> 100 µM	> 100 µM	> 100 µM	> 100 µM	> 100 µM	> 100 µM	> 100 µM	> 100 µM	> 100 µM	> 100 µM	> 100 µM	> 100 µM	> 100 µM	> 100 µM	> 100 µM	> 100 µM	> 100 µM	> 100 µM
CCSc1nnc(Sc2c3ccccc3nc3ccccc23)s1	17.7 µM	> 51.5 µM	17.5 µM	25.1 µM	46.7 µM	15.8 µM	31.7 µM	> 100 µM	> 100 µM	31.6 µM	> 100 µM	> 61.8 µM	38.6 µM	77.8 µM	34.7 µM	32.1 µM	13.3 µM	7.54 µM
CCCN(CCc1ccc(-c2ccccc2)cc1)CCc1ccc2n[nH]nc2c1	25.4 µM	36.3 µM	> 51.2 µM	19.1 µM	22.1 µM	25.7 µM	22.2 µM	30 µM	30.6 µM	24 µM	22.8 µM	28.6 µM	15.8 µM	34.1 µM	33.3 µM	25.4 µM	21.4 µM	24.9 µM
O=c1[nH]c(=O)n(C/C=C/CO)nc1Br	> 100 µM	> 100 µM	> 100 µM	> 100 µM	> 100 µM	> 100 µM	> 100 µM	> 100 µM	> 100 µM	> 100 µM	> 100 µM	> 100 µM	> 100 µM	> 100 µM	> 100 µM	> 100 µM	> 100 µM	> 100 µM
Cc1ccc2c(c1)C(=O)C1(C2)Cc2c(C)cccc2C1=O (centres undefined)	> 100 µM	> 100 µM	> 100 µM	> 100 µM	> 100 µM	> 100 µM	> 100 µM	> 100 µM	> 100 µM	> 100 µM	> 100 µM	> 100 µM	> 100 µM	> 100 µM	> 100 µM	> 100 µM	> 100 µM	> 100 µM
